Measurements reported in patent US20090312349A1, “ANTI-INFLAMMATORY MEDICAMENTS” (priority 2004, published 2009).

These molecules were tested against T1, phospho p-38 alpha kinase (Homo sapiens, UniProt Q16539) (assay: P-38 alpha kinase assay (spectrophotometric, pyruvate kinase/lactate dehydrogenase coupled)). Conditions: Table 3; rates at […] to 2 h; read-out: IC50.
T1 construct: purchased Panvera
T1 sequence (Q16539 whole entry): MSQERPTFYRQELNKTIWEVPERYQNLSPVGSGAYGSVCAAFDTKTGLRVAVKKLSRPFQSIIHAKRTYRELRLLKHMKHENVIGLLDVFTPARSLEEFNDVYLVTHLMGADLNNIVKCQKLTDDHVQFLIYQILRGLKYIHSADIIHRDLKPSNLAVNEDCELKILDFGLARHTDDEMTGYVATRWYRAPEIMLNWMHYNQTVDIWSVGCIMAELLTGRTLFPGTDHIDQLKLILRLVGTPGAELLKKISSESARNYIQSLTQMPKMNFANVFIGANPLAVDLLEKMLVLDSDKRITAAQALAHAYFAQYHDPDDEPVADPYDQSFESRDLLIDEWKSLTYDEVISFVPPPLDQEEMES
Type: biochemical
Protocol: In this assay, the oxidation of NADH was continuously measured spectrophometrically. […] The reaction was initiated by adding ATP. The absorption at 340 nm was monitored continuously for up to 4 hours at 30° C. on Polarstar Optima plate reader (BMG). The kinase activity (reaction rate) was calculated from the slope at the time frame from 1.5 h to 2 h.
For inhibition determinations, test compounds were incubated with the reaction mixture for ˜5 min before adding ATP to start the reaction. […] IC50 values were calculated from a series of % inhibition values determined at a range of concentrations of each inhibitor using Prism to process the data and fit inhibition curves. Generally, the rates obtained at the time frame of 1.5 h to 2 h were used for these calculations.
`CC(C)(C)c1cc(NC(=O)Nc2cccc(Cl)c2Cl)n(-c2cccc(C(N)=O)c2)n1` [Example 289, 1-[3-t-butyl-1-(3-carbamoylphenyl)-1H-pyrazol-5-yl]-3-(2,3-dichlorophenyl)urea] gave an IC50 of 1.3 µM.

Same assay, conditions: Table 5; @ 0.1 uM
`CC(C)c1cc(NC(=O)Nc2cccc3ccccc23)n(-c2cccc(C=O)c2)n1` [Example 350, 1-[1-(3-formylphenyl)-3-isopropyl-1H-pyrazol-5-yl]-3-(naphthalen-1-yl)urea] was tested, and the “% @ concentration, uM” value was 39%.
For `CN1CCN(C(=O)NCc2cccc(-n3nc(C(C)(C)C)cc3NC(=O)Nc3ccc(Cl)cc3)c2)CC1` [Example 390, 1-{3-t-butyl-1-(3-[(1-methylpiperazine-4-carboxamido)methyl]phenyl}-1H-pyrazol-5-yl)-3-(4-chlorophenyl)urea], the “% @ concentration, uM” value was 24%.
With `CC(C)(C)c1cc(NC(=O)Nc2cccc(Cl)c2Cl)n(-c2cccc(Cn3c(=O)[nH]n(-c4ccccc4)c3=O)c2)n1` [Example 396, 1-(3-t-butyl-1-{3-[(3,5-dioxo-1-phenyl-1,2,4-triazolidin-4-yl)methyl]phenyl}-1H-pyrazol-5-yl)-3-(2,3-dichlorophenyl)urea] the “% @ concentration, uM” value was 3%.

Same assay, conditions: Table 5; @ 1 uM
For `CN(C)C(=O)NCc1cccc(-n2nc(C(C)(C)C)cc2NC(=O)Nc2cccc3ccccc23)c1` [Example 384, 1-{3-t-butyl-1-[3-(3,3-dimethylureidomethyl)phenyl]-1H-pyrazol-5-yl}-3-(naphthalen 1-yl)urea], the “% @ concentration, uM” value was 72%.
With `CC(C)c1cc(NC(=O)Nc2cccc3ccccc23)n(-c2cccc(C=O)c2)n1` [Example 350, 1-[1-(3-formylphenyl)-3-isopropyl-1H-pyrazol-5-yl]-3-(naphthalen-1-yl)urea] the “% @ concentration, uM” value was 64%.
In the case of `CN1CCN(C(=O)NCc2cccc(-n3nc(C(C)(C)C)cc3NC(=O)Nc3ccc(Cl)cc3)c2)CC1` [Example 390, 1-{3-t-butyl-1-(3-[(1-methylpiperazine-4-carboxamido)methyl]phenyl}-1H-pyrazol-5-yl)-3-(4-chlorophenyl)urea], the “% @ concentration, uM” value is reported as 63%.
With `CC(C)(C)c1cc(NC(=O)Nc2cccc(Cl)c2Cl)n(-c2cccc(Cn3c(=O)[nH]n(-c4ccccc4)c3=O)c2)n1` [Example 396, 1-(3-t-butyl-1-{3-[(3,5-dioxo-1-phenyl-1,2,4-triazolidin-4-yl)methyl]phenyl}-1H-pyrazol-5-yl)-3-(2,3-dichlorophenyl)urea] the “% @ concentration, uM” value was 56%.

Same assay, conditions: Table 5; @ 2 uM
`CCOC(=O)c1ccc(-n2nc(C(F)(F)F)cc2NC(=O)Nc2ccc(Cl)cc2)cc1` [Example 338, ethyl 4-{5-[3-(4 chlorophenyl)ureido]-3-(trifluoromethyl)-1H-pyrazol-1-yl}benzoate] was tested, and the “% @ concentration, uM” value was 7% @ 2.

Same assay, conditions: Table 5; @ 10 uM
In the case of `CCOC(=O)c1cccc(-n2nc(C(F)(F)F)cc2NC(=O)Nc2cccc3ccccc23)c1` [Example 336], the “% @ concentration, uM” value is reported as 27% @ 10.
`CN(C)C(=O)NCc1cccc(-n2nc(C(C)(C)C)cc2NC(=O)Nc2cccc3ccccc23)c1` [Example 384, 1-{3-t-butyl-1-[3-(3,3-dimethylureidomethyl)phenyl]-1H-pyrazol-5-yl}-3-(naphthalen 1-yl)urea] was tested, and the “% @ concentration, uM” value was 96%.
`CCOC(=O)c1cccc(-n2nc(C)cc2NC(=O)Nc2cccc3ccccc23)c1` [Example 340, ethyl 3-{3-methyl-5-[3-(naphthalen-1-yl)ureido]-1H-pyrazol-1-yl}benzoate] was tested, and the “% @ concentration, uM” value was 31% @ 10.

Same assay, conditions: Table 5; assay not named; read-out: uM
`O=C(Nc1cccc(Cl)c1)Nc1cc(-c2ccccc2)nn1-c1cccc(CO)c1` [Example 352, 1-{3-phenyl-1-[3-(hydroxymethyl)phenyl]-1H-pyrazol-5-yl}-3-(3-chlorophenyl)urea] was tested, and the IC50 was 0.043 µM.
`CC(C)(C)c1cc(NC(=O)Nc2ccc(Cl)cc2)n(-c2cccc(CN3C(=O)C(=O)N(c4ccccc4)C3=O)c2)n1` [Example 391, 1-{3-t-butyl-1-(3-[(2,4,5-trioxo-3-phenylimidazolidin-1-yl)methyl]phenyl)-1H-pyrazol-5-yl}-3-(4-chlorophenyl)urea] gave an IC50 of 0.91 µM.
For `C#CC(O)c1ccc(-n2nc(C(C)(C)C)cc2NC(=O)Nc2cccc3ccccc23)cc1` (stereo not drawn) [Example 361, 1-{3-t-butyl-1-[4-(1-hydroxyprop-2-ynyl)phenyl]-1H-pyrazol-5-yl}-3-(naphthalen-1-yl)urea], the IC50 was 0.87 µM.
`CC(C)(C)c1cc(NC(=O)Nc2ccc(Cl)cc2)n(-c2ccc(OCc3ccccc3)cc2)n1` [Example 418, 1-(3-t-butyl-1-(4-(benzyloxy)phenyl)-1H-pyrazol-5-yl)-3-(4-chlorophenyl)urea] was tested, and the IC50 was 0.075 µM.
With `O=C(O)CCc1cccc(-n2nc(C(F)(F)F)cc2NC(=O)Nc2ccc(Cl)cc2)c1` [Example 427, 3-(3-(5-(3-(4 chlorophenyl)ureido)-3-(trifluoromethyl)-1H-pyrazol-1-yl)phenyl)propanoic acid] the IC50 was 0.819 µM.
With `CCOC(=O)CCc1cccc(-n2nc(-c3ccccc3)cc2NC(=O)Nc2ccc(Cl)cc2)c1` [Example 311, 3-(3-{5-[3-(4-chlorophenyl)-ureido]-3-phenyl-pyrazol-1-yl}-phenyl)-propionic acid ethyl ester] the IC50 was 0.182 µM.
For `CC(C)c1cc(NC(=O)Nc2ccc(Cl)cc2)n(-c2ccc(CO)cc2)n1` [Example 335, 1-(4-chlorophenyl)-3-{1-[4-(hydroxymethyl)phenyl]-3-isopropyl-1H-pyrazol-5-yl}-urea], the IC50 was 0.014 µM.
Work on `CC(C)(C)c1cc(NC(=O)Nc2ccc(Cl)cc2)n(-c2cccc(CN3C(=O)C(=O)NS3(=O)=O)c2)n1` [Example 380, 1-{5-t-butyl-2-[3-(1,1,3,4-tetraoxo-1λ^6-[1,2,5]thiadiazolidin-2-ylmethyl)phenyl]-2H-pyrazol-3-yl}-3-(4-chlorophenyl)urea] yielded an IC50 of 2 µM.
`CCOC(=O)CCc1cccc(-n2nc(C)cc2NC(=O)Nc2ccc(Cl)cc2)c1` [Example 428, 3-(3-{5-[3-(4-chloro-phenyl)-ureido)-3-methyl-pyrazol-1-yl}-phenyl)-propionic acid ethyl ester] gave an IC50 of 0.14 µM.
With `CCOC(=O)CCc1cccc(-n2nc(C(C)C)cc2NC(=O)Nc2ccc(Cl)cc2)c1` [Example 313, ethyl 3-(3-(5-(3-(4-chlorophenyl)ureido)-3-isopropyl-1H-pyrazol-1-yl)phenyl)propanoate] the IC50 was 0.25 µM.
In the case of `CC(C)(C)c1cc(NC(=O)Nc2cccc(Cl)c2Cl)n(-c2ccc(CO)cc2)n1` [Example 363, 1-{3-t-butyl-1-[(hydroxymethyl)phenyl]-1H-pyrazol-5-yl}-3-(2,3-dichloro-phenyl)urea], the IC50 is reported as 0.19 µM.
For `CN1CCN(C(=O)Cc2ccc(-n3nc(-c4ccccc4)cc3NC(=O)Nc3cccc(Cl)c3Cl)cc2)CC1` [Example 475, 1-(2,3-dichlorophenyl)-3-(1-(4-(2-(4-methylpiperazin-1-yl)-2-oxoethyl)phenyl)-3-phenyl-1H-pyrazol-5-yl)urea], the IC50 was 0.01 µM.
Molecule `CC(C)(C)c1cc(NC(=O)Nc2cccc3ccccc23)n(-c2cccc(CNC(=O)N3CCOCC3)c2)n1` [Example 382, 1-(3-t-butyl-1-{3-[(morpholine-4-carboxamido)methyl]phenyl}-1H-pyrazol-5-yl)-3-(naphthalen-1-yl)urea] has an IC50 of 0.88 µM.
In the case of `CN(C)C(=O)NCc1cccc(-n2nc(C(C)(C)C)cc2NC(=O)Nc2ccc(Cl)cc2)c1` [Example 388, 1-{3-t-butyl-1-[3-(3,3-dimethylureidomethyl)phenyl]-1H-pyrazol-5-yl}-3-(4-chlorophenyl)urea], the IC50 is reported as 1.65 µM.
`O=C(O)Cc1cccc(-n2nc(-c3ccccc3)cc2NC(=O)Nc2cccc(Cl)c2Cl)c1` [Example 430, 2-(3-(5-(3-(2,3-dichlorophenyl)ureido)-3-phenyl-1H-pyrazol-1-yl)phenyl)acetic acid] gave an IC50 of 0.942 µM.
`CC(O)c1ccc(-n2nc(C(C)(C)C)cc2NC(=O)Nc2cccc3ccccc23)cc1` (stereo not drawn) [Example 360, 1-{3-t-butyl 1-[4-(1-hydroxyethyl)phenyl]-1H-pyrazol-5-yl}-3-(naphthalen-1-yl)urea] gave an IC50 of 0.39 µM.
`CC(C)c1cc(NC(=O)Nc2ccc(Cl)cc2)n(-c2cccc(CCC(=O)O)c2)n1` [Example 429, 3-(3-(5-(3-(4-chlorophenyl)ureido)-3-isopropyl-1H-pyrazol-1-yl)phenyl)propanoic acid] showed an IC50 of 1.07 µM.
Molecule `CC(C)(C)c1cc(NC(=O)Nc2ccc(Cl)cc2)n(-c2ccc3c(c2)CNCC3)n1` [Example 407, 1-[3-t-butyl-1-(1,2,3,4-tetrahydroisoquinolin-7-yl)-1H-pyrazol-5-yl]-3-(4-chlorophenyl)urea] has an IC50 of 0.0103 µM.
With `O=C(Nc1cccc(C(F)(F)F)c1)Nc1cc(-c2ccccc2)nn1-c1cccc(CO)c1` [Example 354, 1-{3-phenyl-1-[3-(hydroxymethyl)phenyl]-1H-pyrazol-5-yl}-3-(3-trifluoromethylphenyl)urea] the IC50 was 0.11 µM.
For `CC(C)(C)c1cc(NC(=O)Nc2ccc(Cl)cc2)n(-c2cccc(CNC(=O)N3CCOCC3)c2)n1` [Example 386, 1-(3-t-butyl-1-{3-[(morpholine-4-carboxamido)methyl]phenyl}-1H-pyrazol-5-yl)-3-(4-chlorophenyl)urea], the IC50 was 0.114 µM.
In the case of `CC(C)(C)c1cc(NC(=O)Nc2ccc(Cl)cc2)n(-c2cccc(CNC(=O)N3CCCC3)c2)n1` [Example 387, 1-(3-r-butyl-1-{3-[(pyrrolidine-1-carboxamido)methyl]phenyl}-1H-pyrazol-5-yl)-3-(4-chlorophenyl)urea], the IC50 is reported as 4.45 µM.
Molecule `CC(C)(C)c1cc(NC(=O)Nc2cccc(Cl)c2Cl)n(-c2cccc(CO)c2)n1` [Example 372, 1-[3-t-butyl-1-(3-hydroxymethyl-phenyl)-1H-pyrazol-5-yl]-3-(2,3-dichlorophenyl)-urea] has an IC50 of 1.46 µM.
With `CC(Cc1cccc(-n2nc(-c3cccs3)cc2NC(=O)Nc2cccc(Cl)c2Cl)c1)C(=O)O` (stereo not drawn) [Example 490, 3-(3-(5-(3-(2,3-dichlorophenyl)ureido)-3-(thiophen-2-yl)-1H-pyrazol-1-yl)phenyl)-2-methylpropanoic acid] the IC50 was 0.34 µM.
`CCOC(=O)C(C)Cc1cccc(-n2nc(C(C)(C)C)cc2NC(=O)Nc2cccc(Cl)c2Cl)c1` (stereo not drawn) [Example 322, ethyl 3-(3-{3-t-butyl-5-[3-(2,3-dichlorophenyl)ureido]-1H-pyrazol-1-yl}phenyl)-2-methylpropanoate] showed an IC50 of 2.02 µM.
Work on `COc1cccc(NC(=O)Nc2cc(C(C)(C)C)nn2-c2cccc(CO)c2)c1` [Example 306, 1-{3-t-butyl-1-[3-(hydroxymethyl)phenyl]-1H-pyrazol-5-yl}-3-(3-methoxyphenyl)urea] yielded an IC50 of 0.058 µM.
Work on `CCOC(=O)CCc1cccc(-n2nc(C(F)(F)F)cc2NC(=O)Nc2ccc(Cl)cc2)c1` [Example 426, 3-{3-(5-[3-(4-chloro-phenyl)-ureido]-3-trifluoromethyl-pyrazol-1-yl}-phenyl)-propionic acid ethyl ester] yielded an IC50 of 0.013 µM.
Work on `CC(C)(C)c1cc(NC(=O)Nc2ccc(Cl)cc2)n(-c2ccc(O)cc2)n1` [Example 421, 1-(3-t-butyl-1-(4 hydroxyphenyl)-1H-pyrazol-5-yl)-3-(4-chlorophenyl)urea] yielded an IC50 of 0.0147 µM.
